Active and inactive are the calls of the source. The rule behind the calls is not given here.
Tests used:
[1] = biological target: T1, Histidine decarboxylase (Rattus norvegicus) (UniProt P16453); test: Inhibition of histidine decarboxylase in Sprague-Dawley rat stomach using L-histidine-carboxyl-[14C] as substrate at 1 X 10^-4 M after 30 mins by scintillation counting analysis
T1 sequence (whole entry): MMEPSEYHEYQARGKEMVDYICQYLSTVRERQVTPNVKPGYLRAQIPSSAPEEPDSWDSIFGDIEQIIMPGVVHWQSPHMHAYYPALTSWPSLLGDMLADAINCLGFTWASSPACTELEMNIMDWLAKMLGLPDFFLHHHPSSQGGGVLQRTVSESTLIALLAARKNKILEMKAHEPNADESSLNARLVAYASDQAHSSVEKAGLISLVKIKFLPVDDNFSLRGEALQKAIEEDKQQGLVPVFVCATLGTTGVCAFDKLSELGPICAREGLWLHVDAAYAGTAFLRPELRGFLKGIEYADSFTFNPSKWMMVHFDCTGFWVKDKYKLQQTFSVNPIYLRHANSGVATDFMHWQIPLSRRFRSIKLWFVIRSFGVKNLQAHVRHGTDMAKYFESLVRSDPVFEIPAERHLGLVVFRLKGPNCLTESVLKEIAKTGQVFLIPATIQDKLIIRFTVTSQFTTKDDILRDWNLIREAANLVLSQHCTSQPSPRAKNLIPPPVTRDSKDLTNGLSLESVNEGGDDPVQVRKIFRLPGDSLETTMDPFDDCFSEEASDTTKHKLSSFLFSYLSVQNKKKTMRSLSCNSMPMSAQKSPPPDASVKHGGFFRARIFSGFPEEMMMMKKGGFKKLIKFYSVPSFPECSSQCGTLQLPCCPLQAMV

[2] = biological target: T1, Histidine decarboxylase (Rattus norvegicus); test: Inhibition of histidine decarboxylase in Sprague-Dawley rat stomach using L-histidine-carboxyl-[14C] as substrate at 4 X 10^-6 M after 30 mins by scintillation counting analysis relative to control

CC(c1c[nH]cn1)C(N)C(=O)O (configuration not stated)
inhibition [1]: inactive

CCC(c1c[nH]cn1)C(N)C(=O)O (mixture of isomers)
inhibition [1]: inactive

CCC(c1c[nH]cn1)C(N)C(=O)OC (mixture of isomers)
inhibition [2]: 50% | inhibition [1]: inactive

CCCCCCC(c1c[nH]cn1)C(N)C(=O)O (mixture of isomers)
inhibition [1]: inactive

COC(=O)C(N)C(C)c1c[nH]cn1 (mixture of isomers)
inhibition [2]: 50% | inhibition [1]: inactive
